According to patent US11793801B2, “Treatment of pain and neurological conditions” (BioCorRx, Inc., priority 2020, dated 2023):
Like-named read-outs stand apart in the source and are kept apart here.

Experiments:
Delta (DOP) receptor = Delta (DOP) receptor (Homo sapiens, UniProt P41143); experiment: in vitro pharmacology at Delta (DOP) receptor; type: biochemical
Sigma opiate sites = experiment: in vitro pharmacology at Sigma sites; type: binding
[1] = biological target: T1, adrenergic receptor Alpha 1B (Homo sapiens, UniProt P35368); experiment: in vitro antagonistic activity, adrenergic Alpha 1B; type: biochemical
T1 sequence (P35368 1-520): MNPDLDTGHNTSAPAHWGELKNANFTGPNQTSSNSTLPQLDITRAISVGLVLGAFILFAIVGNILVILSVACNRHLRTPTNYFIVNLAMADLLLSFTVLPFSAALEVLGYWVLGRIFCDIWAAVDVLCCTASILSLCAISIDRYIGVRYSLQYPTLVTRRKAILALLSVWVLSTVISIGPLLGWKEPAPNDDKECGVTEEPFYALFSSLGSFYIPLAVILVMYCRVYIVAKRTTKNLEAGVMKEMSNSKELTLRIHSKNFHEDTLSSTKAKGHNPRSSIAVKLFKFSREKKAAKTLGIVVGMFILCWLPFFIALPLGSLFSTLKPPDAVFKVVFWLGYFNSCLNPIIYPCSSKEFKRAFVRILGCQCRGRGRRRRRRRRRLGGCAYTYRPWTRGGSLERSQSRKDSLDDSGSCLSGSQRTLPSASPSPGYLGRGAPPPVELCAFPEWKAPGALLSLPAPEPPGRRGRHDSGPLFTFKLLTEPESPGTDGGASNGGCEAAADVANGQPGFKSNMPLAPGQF

[2] = biological target: T2, adrenergic receptor Alpha 2B (Homo sapiens, UniProt P18089); experiment: in vitro antagonistic activity, adrenergic Alpha 2B; type: biochemical
T2 sequence (P18089 1-450): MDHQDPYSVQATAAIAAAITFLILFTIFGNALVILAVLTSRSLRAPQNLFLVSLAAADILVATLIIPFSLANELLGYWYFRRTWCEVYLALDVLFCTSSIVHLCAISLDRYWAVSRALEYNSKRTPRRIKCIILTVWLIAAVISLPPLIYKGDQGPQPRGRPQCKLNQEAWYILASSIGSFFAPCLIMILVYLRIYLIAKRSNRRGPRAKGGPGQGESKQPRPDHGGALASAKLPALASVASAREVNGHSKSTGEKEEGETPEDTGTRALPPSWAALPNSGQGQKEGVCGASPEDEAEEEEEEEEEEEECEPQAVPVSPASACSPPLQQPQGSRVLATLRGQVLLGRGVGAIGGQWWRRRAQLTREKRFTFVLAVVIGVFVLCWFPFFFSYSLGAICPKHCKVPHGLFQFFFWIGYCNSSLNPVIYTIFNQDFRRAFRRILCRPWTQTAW

[3] = biological target: T3, adrenergic receptor Alpha 2C (Homo sapiens, UniProt P18825); experiment: in vitro antagonistic activity, adrenergic Alpha 2C; type: biochemical
T3 sequence (P18825 1-462): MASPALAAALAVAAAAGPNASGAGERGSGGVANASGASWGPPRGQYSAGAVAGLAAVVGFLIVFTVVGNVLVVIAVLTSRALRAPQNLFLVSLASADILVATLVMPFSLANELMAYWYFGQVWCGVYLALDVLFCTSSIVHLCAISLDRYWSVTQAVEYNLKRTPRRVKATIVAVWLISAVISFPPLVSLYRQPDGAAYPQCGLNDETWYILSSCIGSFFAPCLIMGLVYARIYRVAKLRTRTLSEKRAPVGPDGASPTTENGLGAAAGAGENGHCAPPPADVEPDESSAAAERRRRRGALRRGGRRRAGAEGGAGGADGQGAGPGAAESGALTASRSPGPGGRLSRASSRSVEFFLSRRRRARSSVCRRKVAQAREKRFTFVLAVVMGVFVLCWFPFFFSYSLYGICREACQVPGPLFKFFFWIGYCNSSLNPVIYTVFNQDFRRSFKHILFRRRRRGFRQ

histamine H1 receptor = histamine H1 receptor (Homo sapiens, UniProt P35367); experiment: in vitro antagonistic activity, histamine H1; type: biochemical
[4] = biological target: T4, cholinergic muscarinic receptor 1 (Homo sapiens, UniProt P11229); experiment: in vitro antagonistic activity, muscarinic 1; type: biochemical
T4 sequence (P11229 1-460): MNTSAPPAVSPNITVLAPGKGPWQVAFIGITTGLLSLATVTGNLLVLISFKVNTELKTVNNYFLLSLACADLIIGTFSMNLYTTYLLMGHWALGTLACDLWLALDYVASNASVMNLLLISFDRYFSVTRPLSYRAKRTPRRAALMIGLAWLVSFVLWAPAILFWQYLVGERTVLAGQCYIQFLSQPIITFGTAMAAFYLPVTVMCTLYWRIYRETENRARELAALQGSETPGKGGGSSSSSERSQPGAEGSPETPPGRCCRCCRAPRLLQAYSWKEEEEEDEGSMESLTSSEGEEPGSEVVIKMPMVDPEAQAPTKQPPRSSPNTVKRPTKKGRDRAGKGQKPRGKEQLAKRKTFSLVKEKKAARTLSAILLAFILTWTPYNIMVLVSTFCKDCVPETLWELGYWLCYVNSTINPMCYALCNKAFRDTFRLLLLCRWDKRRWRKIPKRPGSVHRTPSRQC

[5] = biological target: cholinergic muscarinic receptor 3 (Homo sapiens, UniProt P20309); experiment: in vitro antagonistic activity, muscarinic 3; type: biochemical
[6] = biological target: T5, cholinergic muscarinic receptor 4 (Homo sapiens, UniProt P08173); experiment: in vitro antagonistic activity, muscarinic 4; type: biochemical
T5 sequence (P08173 1-479): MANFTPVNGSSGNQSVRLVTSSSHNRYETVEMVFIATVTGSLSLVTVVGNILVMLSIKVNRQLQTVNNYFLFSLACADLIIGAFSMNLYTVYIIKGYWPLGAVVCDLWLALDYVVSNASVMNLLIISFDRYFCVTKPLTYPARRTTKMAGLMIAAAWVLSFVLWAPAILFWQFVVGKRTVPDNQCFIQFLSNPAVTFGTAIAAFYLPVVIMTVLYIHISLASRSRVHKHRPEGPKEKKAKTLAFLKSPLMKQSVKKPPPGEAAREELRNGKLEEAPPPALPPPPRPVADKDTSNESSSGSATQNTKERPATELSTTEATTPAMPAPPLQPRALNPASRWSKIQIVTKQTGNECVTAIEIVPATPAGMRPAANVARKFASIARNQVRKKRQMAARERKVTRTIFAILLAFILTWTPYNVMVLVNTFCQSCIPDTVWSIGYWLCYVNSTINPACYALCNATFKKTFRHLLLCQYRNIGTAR

[7] = biological target: T6, cholinergic muscarinic receptor 5 (Homo sapiens, UniProt P08912); experiment: in vitro antagonistic activity, muscarinic 5; type: biochemical
T6 sequence (P08912 1-532): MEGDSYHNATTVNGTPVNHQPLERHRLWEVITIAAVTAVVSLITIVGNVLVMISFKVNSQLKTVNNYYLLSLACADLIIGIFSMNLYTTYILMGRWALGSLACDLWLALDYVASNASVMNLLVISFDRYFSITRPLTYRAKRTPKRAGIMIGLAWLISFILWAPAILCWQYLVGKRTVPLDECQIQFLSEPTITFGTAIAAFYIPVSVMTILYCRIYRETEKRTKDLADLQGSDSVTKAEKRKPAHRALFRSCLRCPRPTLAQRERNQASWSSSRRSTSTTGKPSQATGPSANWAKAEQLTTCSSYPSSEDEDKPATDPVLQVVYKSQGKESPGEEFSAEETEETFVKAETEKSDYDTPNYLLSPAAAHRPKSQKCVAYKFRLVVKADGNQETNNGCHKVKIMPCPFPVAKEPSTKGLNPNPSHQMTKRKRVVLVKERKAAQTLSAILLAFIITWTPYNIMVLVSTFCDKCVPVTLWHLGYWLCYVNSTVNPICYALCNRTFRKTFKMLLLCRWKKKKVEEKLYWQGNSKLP

dopamine D4 receptor = biological target: T7, dopamine D4 receptor (Homo sapiens, UniProt P21917); experiment: in vitro antagonistic activity, dopamine D4; type: biochemical
T7 sequence (P21917 1-419): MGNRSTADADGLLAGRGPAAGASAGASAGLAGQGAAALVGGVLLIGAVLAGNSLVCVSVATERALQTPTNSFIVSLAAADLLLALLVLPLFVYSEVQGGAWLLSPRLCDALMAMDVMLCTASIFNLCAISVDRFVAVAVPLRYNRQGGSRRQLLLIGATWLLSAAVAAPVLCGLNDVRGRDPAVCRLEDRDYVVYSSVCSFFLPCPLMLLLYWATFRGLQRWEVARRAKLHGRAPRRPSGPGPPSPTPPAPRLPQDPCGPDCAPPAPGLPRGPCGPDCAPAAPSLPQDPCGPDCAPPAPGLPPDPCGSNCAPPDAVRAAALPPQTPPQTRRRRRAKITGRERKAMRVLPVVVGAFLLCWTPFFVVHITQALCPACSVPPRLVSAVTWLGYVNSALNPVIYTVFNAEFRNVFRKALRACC

serotonin receptor 1A = biological target: T8, serotonin receptor 1A (Homo sapiens, UniProt P08908); experiment: in vitro antagonistic activity, serotonin 1A; type: biochemical
T8 sequence (P08908 1-422): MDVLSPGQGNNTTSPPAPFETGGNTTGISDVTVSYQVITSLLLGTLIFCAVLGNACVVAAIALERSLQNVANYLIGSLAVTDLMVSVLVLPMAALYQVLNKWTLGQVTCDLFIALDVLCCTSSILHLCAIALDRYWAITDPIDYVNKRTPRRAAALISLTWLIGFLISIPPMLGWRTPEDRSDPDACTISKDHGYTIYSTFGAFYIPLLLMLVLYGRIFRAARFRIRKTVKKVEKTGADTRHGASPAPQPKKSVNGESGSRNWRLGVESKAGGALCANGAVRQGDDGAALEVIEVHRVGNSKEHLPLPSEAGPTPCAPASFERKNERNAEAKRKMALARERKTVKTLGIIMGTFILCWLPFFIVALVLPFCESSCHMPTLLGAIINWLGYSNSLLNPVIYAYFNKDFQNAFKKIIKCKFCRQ

morphine addicted rats = experiment: opioid withdrawal signs in morphine addicted rats; type: in vivo

Sequence of cholinergic muscarinic receptor 3 (P20309 whole entry): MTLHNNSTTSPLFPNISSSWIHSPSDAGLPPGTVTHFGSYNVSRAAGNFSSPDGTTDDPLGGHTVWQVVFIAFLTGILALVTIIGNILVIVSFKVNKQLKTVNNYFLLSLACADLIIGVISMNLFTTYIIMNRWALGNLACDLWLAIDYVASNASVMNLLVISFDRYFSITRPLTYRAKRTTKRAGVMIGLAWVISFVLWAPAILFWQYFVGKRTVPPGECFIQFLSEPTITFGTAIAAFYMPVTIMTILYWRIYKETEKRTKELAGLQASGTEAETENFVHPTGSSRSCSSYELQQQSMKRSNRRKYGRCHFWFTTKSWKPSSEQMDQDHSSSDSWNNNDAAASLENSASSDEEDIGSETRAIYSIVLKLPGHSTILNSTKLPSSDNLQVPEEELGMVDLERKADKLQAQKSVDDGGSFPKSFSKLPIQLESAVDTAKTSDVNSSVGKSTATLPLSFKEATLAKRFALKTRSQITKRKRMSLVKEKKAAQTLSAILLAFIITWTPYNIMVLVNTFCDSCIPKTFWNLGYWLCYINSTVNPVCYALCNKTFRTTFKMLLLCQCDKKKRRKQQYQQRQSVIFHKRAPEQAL
Sequence of Delta (DOP) receptor (P41143 whole entry): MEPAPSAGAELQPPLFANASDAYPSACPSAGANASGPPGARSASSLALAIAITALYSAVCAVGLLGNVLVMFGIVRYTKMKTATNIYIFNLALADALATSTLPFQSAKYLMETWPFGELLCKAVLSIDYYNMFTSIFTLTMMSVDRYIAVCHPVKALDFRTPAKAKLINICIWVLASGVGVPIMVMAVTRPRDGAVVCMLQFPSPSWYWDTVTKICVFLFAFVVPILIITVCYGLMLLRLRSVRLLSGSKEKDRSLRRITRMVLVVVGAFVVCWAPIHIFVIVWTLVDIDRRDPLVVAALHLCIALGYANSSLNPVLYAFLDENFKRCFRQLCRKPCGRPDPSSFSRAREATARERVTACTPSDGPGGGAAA
Sequence of histamine H1 receptor (P35367 whole entry, species assumed): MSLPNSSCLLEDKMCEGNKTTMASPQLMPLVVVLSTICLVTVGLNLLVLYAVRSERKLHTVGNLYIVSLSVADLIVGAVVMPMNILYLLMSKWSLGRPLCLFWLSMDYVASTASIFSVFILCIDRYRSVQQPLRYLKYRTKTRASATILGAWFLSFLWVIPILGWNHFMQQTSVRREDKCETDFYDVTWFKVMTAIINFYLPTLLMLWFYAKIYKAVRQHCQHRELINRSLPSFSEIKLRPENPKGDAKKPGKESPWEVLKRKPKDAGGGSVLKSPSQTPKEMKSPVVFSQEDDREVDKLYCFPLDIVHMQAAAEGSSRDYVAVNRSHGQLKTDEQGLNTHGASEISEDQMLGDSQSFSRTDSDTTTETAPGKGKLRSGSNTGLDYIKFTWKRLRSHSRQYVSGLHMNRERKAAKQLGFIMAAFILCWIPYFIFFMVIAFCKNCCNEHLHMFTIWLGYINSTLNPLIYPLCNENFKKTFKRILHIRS

SMILES: CCC(=O)NC1CC(C)N(CCc2ccccc2)CC1C (centres unmarked) [Compound 1, N-[2,5-dimethyl-1-(2-phenylethyl)piperidin-4-yl]propanamide]
- Receptor Delta (DOP): mode of action (Delta (DOP) receptor): Antagonist
- Receptor Sigma: affinity (Sigma opiate sites): High Affinity
- Receptor Sigma: affinity (Sigma opiate sites; listed as compound 1): further activity
- activity at adrenergic receptor Alpha 1B [1]: antagonistic activity
- activity at adrenergic receptor Alpha 2B [2]: antagonistic activity
- activity at adrenergic receptor Alpha 2C [3]: antagonistic activity
- activity at histamine H1 receptor (histamine H1 receptor): antagonistic activity
- activity at cholinergic muscarinic receptor 1 [4]: antagonistic activity
- activity at cholinergic muscarinic receptor 3 [5]: antagonistic activity
- activity at cholinergic muscarinic receptor 4 [6]: antagonistic activity
- activity at cholinergic muscarinic receptor 5 [7]: antagonistic activity
- activity at dopamine D4 receptor (dopamine D4 receptor): antagonistic activity
- activity at serotonin receptor 1A (serotonin receptor 1A): antagonistic activity
- opioid withdrawal signs (morphine addicted rats): few if any opioid withdrawal signs

SMILES: C=CCN1CC[C@]23c4c5ccc(O)c4O[C@H]2C(=O)CC[C@@]3(O)[C@H]1C5 [Naloxone, reference compound]
- Receptor Sigma: affinity (Sigma opiate sites): Weak
- opioid withdrawal signs (morphine addicted rats): withdrawal effects

SMILES: O=C1CC[C@@]2(O)[C@H]3Cc4ccc(O)c5c4[C@@]2(CCN3CC2CC2)[C@H]1O5 [Naltrexone, reference compound]
- Receptor Sigma: affinity (Sigma opiate sites): Weak
